Reference: patent US8071558B2, “Application of D-psicose to suppression of abnormal circadian increase in blood glucose level” (Rare Sugar Production Technical Research Laboratories, LLC., priority 2005, dated 2011)
Values belong to the compound of their own block, whether it stands above or below them.

Assays:
Male Wistar rats [1] = experiment: Oral glucose tolerance test: influence of D-psicose on the reaction of increasing blood glucose; assay type: in vivo, rat; settings: for blood glucose level compared with single administration of D-glucose: minutes after administration; for increase of the blood glucose level: oral D-glucose 2 g/kg with test sugar 0.32 g/kg (16% of D-glucose) simultaneously
Protocol: Male Wistar rats of age 6 months were fed ad libitum under a condition that the bright cycle was at a temperature of 25° C. and a humidity of 50 to 70% from 8:00 am to 20:00 pm, for preliminary feeding for one week. On the day before the experiment, the rats were fasted for 12 hours and subsequently orally given D-glucose at 2 g/kg (in the form of 50% glucose solution) using a probe. Blood was drawn before the dosing and 30, 60, 90, 120, 150 and 180 minutes after the dosing. Blood glucose level was measured with a blood glucose meter. Alternatively, D-fructose or D-psicose at 0.32 g/kg (at 16% of D-glucose) was simultaneously given with D-glucose at 2 g/kg. In the same manner, blood glucose level was measured. Based on the resulting blood glucose levels, the area under the curve of blood glucose level (ΔAUC) was calculated.

sucrase = molecular target: T1, sucrase (Rattus norvegicus, UniProt P23739); experiment: Sucrose administration experiment (inhibition of sucrase in vivo), plasma glucose; settings: rats; for Plasma glucose level, 0 min: before sucrose 2 g/kg + test sugar 200 mg/kg; for Plasma glucose level, 30 min / Plasma glucose level, 60 min / Plasma glucose level, 90 min / Plasma glucose level, 120 min / ΔAUC of plasma glucose level: sucrose 2 g/kg + test sugar 200 mg/kg
T1 construct: from tissue; host or cells: small intestine of live male Wistar rats (oral sugar load)
T1 sequence (P23739 whole entry): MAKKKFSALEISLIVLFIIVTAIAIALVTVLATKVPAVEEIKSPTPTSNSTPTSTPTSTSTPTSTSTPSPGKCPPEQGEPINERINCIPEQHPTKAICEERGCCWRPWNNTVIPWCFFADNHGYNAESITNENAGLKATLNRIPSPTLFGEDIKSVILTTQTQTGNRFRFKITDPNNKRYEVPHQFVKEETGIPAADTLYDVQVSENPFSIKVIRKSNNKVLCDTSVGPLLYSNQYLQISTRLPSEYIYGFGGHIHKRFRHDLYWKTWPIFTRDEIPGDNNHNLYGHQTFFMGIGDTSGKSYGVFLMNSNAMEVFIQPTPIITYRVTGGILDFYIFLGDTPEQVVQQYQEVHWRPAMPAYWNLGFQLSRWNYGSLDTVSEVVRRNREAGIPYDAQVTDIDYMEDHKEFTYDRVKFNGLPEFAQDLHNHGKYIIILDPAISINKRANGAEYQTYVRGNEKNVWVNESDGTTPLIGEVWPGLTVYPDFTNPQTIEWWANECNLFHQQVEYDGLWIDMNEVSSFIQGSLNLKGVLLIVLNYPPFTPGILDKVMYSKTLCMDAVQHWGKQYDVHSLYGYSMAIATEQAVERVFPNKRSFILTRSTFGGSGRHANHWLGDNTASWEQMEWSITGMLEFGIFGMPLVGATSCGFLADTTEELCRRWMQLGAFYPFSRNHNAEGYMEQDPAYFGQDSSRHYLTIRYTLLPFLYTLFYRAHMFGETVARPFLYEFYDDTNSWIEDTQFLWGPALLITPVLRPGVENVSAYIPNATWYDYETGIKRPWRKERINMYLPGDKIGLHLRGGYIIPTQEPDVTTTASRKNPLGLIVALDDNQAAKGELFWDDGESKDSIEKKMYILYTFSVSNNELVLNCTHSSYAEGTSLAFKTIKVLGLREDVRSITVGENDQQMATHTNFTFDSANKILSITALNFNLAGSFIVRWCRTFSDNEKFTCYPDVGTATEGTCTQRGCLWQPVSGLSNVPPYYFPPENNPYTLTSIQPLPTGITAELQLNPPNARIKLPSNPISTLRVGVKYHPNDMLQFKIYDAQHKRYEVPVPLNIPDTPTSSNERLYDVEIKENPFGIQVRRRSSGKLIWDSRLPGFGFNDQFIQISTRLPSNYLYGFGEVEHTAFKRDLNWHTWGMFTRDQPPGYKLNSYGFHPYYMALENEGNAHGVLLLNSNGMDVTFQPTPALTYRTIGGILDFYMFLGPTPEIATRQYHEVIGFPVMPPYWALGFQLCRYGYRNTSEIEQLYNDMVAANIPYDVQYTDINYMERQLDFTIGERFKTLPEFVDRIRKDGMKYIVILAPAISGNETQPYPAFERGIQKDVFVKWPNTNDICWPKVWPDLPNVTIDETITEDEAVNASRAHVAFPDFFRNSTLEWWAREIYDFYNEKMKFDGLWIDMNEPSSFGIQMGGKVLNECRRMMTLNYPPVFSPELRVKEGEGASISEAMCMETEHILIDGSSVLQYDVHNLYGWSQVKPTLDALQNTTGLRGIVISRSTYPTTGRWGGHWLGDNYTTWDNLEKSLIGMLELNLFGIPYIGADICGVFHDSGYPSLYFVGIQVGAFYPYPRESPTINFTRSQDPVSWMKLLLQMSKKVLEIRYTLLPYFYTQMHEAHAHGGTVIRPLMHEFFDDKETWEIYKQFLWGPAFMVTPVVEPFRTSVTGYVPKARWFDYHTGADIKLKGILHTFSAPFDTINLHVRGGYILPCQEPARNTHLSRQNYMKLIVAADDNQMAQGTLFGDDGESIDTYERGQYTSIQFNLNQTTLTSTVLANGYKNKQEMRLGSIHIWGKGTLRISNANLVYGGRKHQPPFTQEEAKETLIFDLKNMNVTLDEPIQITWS
Protocol: Sucrose 2 g/kg+L-arabinose 200 mg/kg (SA)
Sucrose 2 g/kg+D-xylose 200 mg/kg (SX)
Sucrose 2 g/kg+D-fructose 200 mg/kg (SF)
Sucrose 2 g/kg+D-psicose 200 mg/kg (SP)
Sucrose 2 g/kg+(fructose 150 mg/kg+psicose 50 mg/kg) (SFP)

maltase = experiment: Maltose administration experiment (inhibition of maltase in vivo), plasma glucose; design: species or system rat; settings: rats; for Plasma glucose level, 0 min: before maltose 2 g/kg + test sugar 200 mg/kg; for Plasma glucose level, 30 min / Plasma glucose level, 60 min / Plasma glucose level, 90 min / Plasma glucose level, 120 min / ΔAUC of plasma glucose level: maltose 2 g/kg + test sugar 200 mg/kg; for action to suppress the increase of blood glucose level: given simultaneously with maltose (experiment 2)
Protocol: (§1) Thirty-six male Wistar rats of age 6 months are divided into 6 groups. The following sugars were given to the rats in the individual groups after 12-hour fasting. Before the administration and 30, 60, 90, 120 and 180 minutes after the administration, blood is drawn from the tail vein, to assay plasma glucose and insulin concentration.
2. Maltose 2 g/kg+L-arabinose 200 mg/kg (MA)
3. Maltose 2 g/kg+D-xylose 200 mg/kg (MX)
4. Maltose 2 g/kg+D-fructose 200 mg/kg (MF)
5. Maltose 2 g/kg+D-psicose 200 mg/kg (MP)
6. Maltose 2 g/kg+(fructose 150 mg/kg+psicose 50 mg/kg) (MFP)
(§2) Before the administration and 30, 60, 90, 120 and 180 minutes after the administration, plasma glucose level was assayed. The plasma glucose level 180 minutes later was used to calculate the area under the curve of plasma glucose level (ΔAUC).

Male Wistar rats [2] = experiment: Soluble starch administration experiment, plasma glucose; assay type: in vivo, rat; settings: for Plasma glucose level, 0 min: before soluble starch 2 g/kg + test sugar 200 mg/kg; for Plasma glucose level, 30 min / Plasma glucose level, 60 min / Plasma glucose level, 90 min / Plasma glucose level, 120 min / ΔAUC of plasma glucose level: soluble starch 2 g/kg + test sugar 200 mg/kg; for action to suppress the increase of blood glucose level: given simultaneously with soluble starch (experiment 3)
Protocol: as §1
1. Soluble starch 2 g/kg (SS)
2. Soluble starch 2 g/kg+L-arabinose 200 mg/kg (SSA)
3. Soluble starch 2 g/kg+D-xylose 200 mg/kg (SSX)
4. Soluble starch 2 g/kg+D-fructose 200 mg/kg (SSF)
5. Soluble starch 2 g/kg+D-psicose 200 mg/kg (SSP)
6. Soluble starch 2 g/kg+(fructose 150 mg/kg+psicose 50 mg/kg) (SSFP)
as §2

[3] = test system: diabetic rats (fatty Zucker rats); settings: cited from earlier work
Male Wistar rats [4] = experiment: Influence of D-psicose diet on liver weight and composition (16-week feeding); assay type: in vivo, rat; settings: 16 weeks
Protocol: Twenty-four male Wistar rats of age 3 weeks were fed ad libitum under a condition that the bright cycle was at a temperature of 25° C. and a humidity of 50 to 70% from 8:00 am to 20:00 pm, for preliminary feeding for one week. Subsequently, the rats were divided into 4 groups, each group consisting of 6 rats. The groups were defined a high fat/D-psicose diet (HF-P) group; a high fat/cellulose diet (HF-C) group; a low fat/D-psicose diet (LF-P) group; and a low fat/cellulose diet (LF-C) group. 20% beef fat and 5% soybean oil were used to prepare the high fat diets. 5% soybean oil was used to prepare the low fat diets. 5% D-psicose or cellulose was added to the individual diets. These rats were fed these experimental diets and water ad libitum for 16 weeks. On the last day of the experiment, the rats were decapitated and sacrificed to death, from which liver, flounder muscle and intraperitoneal fat tissues were resected. Glycogen, neutral fat and protein were assayed in the liver, while glycogen content was assayed in the flounder muscle. [table]

Male Wistar rats [5] = experiment: Intra-day variation of plasma glucose concentration in rats fed 5% sugar diets; assay type: in vivo, rat; settings: 5% in diet, fed twice daily for 8 weeks
Text: Forty male Wistar rats of age 3 weeks were preliminarily fed for one week and then divided into 4 groups. Then, a control diet (AIN-76A), and the control diet with addition of 5% D-fructose, the control diet with addition of 5% D-psicose, and the control diet with addition of 5% psico-rare sugar were fed to the rats, twice daily (at 8 to 9 am and at 20 to 21 pm) ad libitum for 8 weeks. At 2 am, 6 am, 10 am, 14 pm, 18 pm and 22 pm on the week 7 or 8 of the feeding, blood was drawn from the tail veins of the rats. Plasma was separated from the blood to assay glucose concentration.

liver [6] = settings: in vivo; cited from earlier work
pancreatic island cells = settings: in vitro; cited from earlier work
α-glucosidase = settings: in vitro; cited from earlier work
liver [7] = settings: D-psicose added up to 20% of the weight of the feeds; cited from earlier work
liver [8] = settings: in vivo; cited from earlier work; remark: listed apart in the source
[9] = D-glucose 2 g/kg + 0.32 g/kg test sugar

SMILES: O=C(CO)[C@@H](O)[C@H](O)[C@H](O)CO [D-fructose]
ΔAUC of blood glucose level compared with single D-glucose administration (Male Wistar rats [1]; [9]): significantly low
blood glucose level compared with single administration of D-glucose (Male Wistar rats [1]; [9]): significantly low in 90 and 120 minutes
increase of the blood glucose level (Male Wistar rats [1]): suppressed
Plasma glucose level, 0 min (sucrase): 97 mg/dL
Plasma glucose level, 30 min (sucrase): 134 ± 13 ab mg/dl
Plasma glucose level, 60 min (sucrase): 148 ± 12 ab mg/dl
Plasma glucose level, 90 min (sucrase): 147 ± 9 ab mg/dl
Plasma glucose level, 120 min (sucrase): 141 ± 7 mg/dL
ΔAUC of plasma glucose level (sucrase): 4732 min^− mg/dl
Plasma glucose level, 0 min (maltase): 81 ± 10 mg/dL
Plasma glucose level, 30 min (maltase): 139 ± 15 mg/dL
Plasma glucose level, 60 min (maltase): 156 ± 20 ab mg/dl
Plasma glucose level, 90 min (maltase): 152 ± 10 mg/dL
Plasma glucose level, 120 min (maltase): 142 ± 12 mg/dL
ΔAUC of plasma glucose level (maltase): 7031 min^− mg/dl
Plasma glucose level, 0 min (Male Wistar rats [2]): 92 ± 4 mg/dL
Plasma glucose level, 30 min (Male Wistar rats [2]): 130 ± 15 mg/dL
Plasma glucose level, 60 min (Male Wistar rats [2]): 137 ± 21 mg/dL
Plasma glucose level, 90 min (Male Wistar rats [2]): 132 ± 13 mg/dL
Plasma glucose level, 120 min (Male Wistar rats [2]): 130 ± 13 mg/dL
ΔAUC of plasma glucose level (Male Wistar rats [2]): 4243 min^− mg/dl
reaction of increasing blood glucose via D-glucose and maltodextrin [3]: suppressed

SMILES: O=C(CO)[C@H](O)[C@H](O)[C@H](O)CO [D-psicose]
increasing rate of blood glucose level compared with D-fructose (Male Wistar rats [1]; [9]): likely reduced
ΔAUC of blood glucose level compared with single D-glucose administration (Male Wistar rats [1]; [9]): significantly low
blood glucose level compared with single administration of D-glucose (Male Wistar rats [1]; [9]): significantly low in 60, 90 and 120 minutes
increase of the blood glucose level (Male Wistar rats [1]): suppressed
liver weight, effect of addition of D-psicose (Male Wistar rats [4]; 5% in diet, irrespective of the fat content, vs cellulose diet): increased
hepatic glycogen content, effect of addition of D-psicose (Male Wistar rats [4]; 5% in diet, vs cellulose diet): tended to increase
protein content per liver, effect of addition of D-psicose (Male Wistar rats [4]; 5% in diet, vs cellulose diet): significantly increased
weight of intraperitoneal fat tissues, effect of addition of D-psicose (Male Wistar rats [4]; 5% in diet, vs cellulose diet): no influence
Flounder muscle weight (Male Wistar rats [4]; high fat diet + 5% D-psicose): 210 ± 8 mg
Liver weight (Male Wistar rats [4]; high fat diet + 5% D-psicose): 9.5 ± 0.5 g
Weight of intraperitoneal fat tissues (Male Wistar rats [4]; high fat diet + 5% D-psicose): 27 ± 2 g
Flounder muscle weight (Male Wistar rats [4]; low fat diet + 5% D-psicose): 209 ± 10 mg
Liver weight (Male Wistar rats [4]; low fat diet + 5% D-psicose): 13.2 ± 0.3 g
Weight of intraperitoneal fat tissues (Male Wistar rats [4]; low fat diet + 5% D-psicose): 23 ± 1 g
Plasma glucose level, 0 min (sucrase): 89 mg/dL
increase of blood glucose level up to 60 minutes after the administration, compared with sucrose alone (sucrase; given simultaneously with sucrose): suppressed
Plasma glucose level, 30 min (sucrase): 128 ± 12 ab mg/dl
Plasma glucose level, 60 min (sucrase): 139 ± 13 ab mg/dl
Plasma glucose level, 90 min (sucrase): 150 ± 20 a mg/dl
Plasma glucose level, 120 min (sucrase): 143 ± 28 mg/dL
ΔAUC of plasma glucose level (sucrase): 5339 min^− mg/dl
Plasma glucose level, 0 min (maltase): 82 ± 8 mg/dL
action to suppress the increase of blood glucose level (maltase): the effect was low
Plasma glucose level, 30 min (maltase): 125 ± 21 mg/dL
Plasma glucose level, 60 min (maltase): 147 ± 16 b mg/dl
Plasma glucose level, 90 min (maltase): 146 ± 14 mg/dL
Plasma glucose level, 120 min (maltase): 132 ± 13 mg/dL
ΔAUC of plasma glucose level (maltase): 5887 min^− mg/dl
Plasma glucose level, 0 min (Male Wistar rats [2]): 91 ± 10 mg/dL
action to suppress the increase of blood glucose level (Male Wistar rats [2]): the effect was low
Plasma glucose level, 30 min (Male Wistar rats [2]): 128 ± 12 mg/dL
Plasma glucose level, 60 min (Male Wistar rats [2]): 123 ± 21 mg/dL
Plasma glucose level, 90 min (Male Wistar rats [2]): 121 ± 17 mg/dL
Plasma glucose level, 120 min (Male Wistar rats [2]): 122 ± 16 mg/dL
ΔAUC of plasma glucose level (Male Wistar rats [2]): 3344 min^− mg/dl
increment of the area under the curve of plasma glucose concentration (ΔAUC) based on 8 am, compared with control and D-fructose groups (Male Wistar rats [5]): significantly small
plasma glucose concentration compared with the control group and the D-fructose group (Male Wistar rats [5]; week 7 or 8): low throughout the day
toxicity causing the deterioration of the hepatic function (liver [6]): no toxicity
insulin secretion from pancreatic island cells (pancreatic island cells): promoted
α-glucosidase inhibition (α-glucosidase): inhibits
liver weight per body weight (liver [7]): tended to increase

SMILES: O=C(CO)[C@@H](O)[C@@H](O)[C@H](O)CO [D-tagatose]
histological change of liver (liver [8]): never involved any histological change of liver

The next lines start with results.

Plasma glucose level, 0 min (sucrase): 102 mg/dL
Plasma glucose level, 30 min (sucrase): 123 ± 11 b mg/dl
Plasma glucose level, 60 min (sucrase): 126 ± 12 b mg/dl
Plasma glucose level, 90 min (sucrase): 130 ± 13 b mg/dl
Plasma glucose level, 120 min (sucrase): 137 ± 16 mg/dL
ΔAUC of plasma glucose level (sucrase): 2646 min^− mg/dl
SMILES: O=C[C@H](O)[C@@H](O)[C@H](O)CO [D-xylose]
Plasma glucose level, 0 min (maltase): 86 ± 8 mg/dL
action to suppress the increase of blood glucose level (maltase): scarcely suppressed
Plasma glucose level, 30 min (maltase): 146 ± 14 mg/dL
Plasma glucose level, 60 min (maltase): 172 ± 12 a mg/dl
Plasma glucose level, 90 min (maltase): 166 ± 20 mg/dL
Plasma glucose level, 120 min (maltase): 150 ± 19 mg/dL
ΔAUC of plasma glucose level (maltase): 7765 min^− mg/dl
Plasma glucose level, 0 min (Male Wistar rats [2]): 99 ± 10 mg/dL
action to suppress the increase of blood glucose level (Male Wistar rats [2]): scarcely suppressed
Plasma glucose level, 30 min (Male Wistar rats [2]): 141 ± 8 mg/dL
Plasma glucose level, 60 min (Male Wistar rats [2]): 135 ± 12 mg/dL
Plasma glucose level, 90 min (Male Wistar rats [2]): 138 ± 16 mg/dL
Plasma glucose level, 120 min (Male Wistar rats [2]): 131 ± 12 mg/dL
ΔAUC of plasma glucose level (Male Wistar rats [2]): 4040 min^− mg/dl

Plasma glucose level, 0 min (sucrase): 93 mg/dL
Plasma glucose level, 30 min (sucrase): 139 ± 21 ab mg/dl
Plasma glucose level, 60 min (sucrase): 142 ± 21 ab mg/dl
Plasma glucose level, 90 min (sucrase): 139 ± 14 ab mg/dl
Plasma glucose level, 120 min (sucrase): 142 ± 18 mg/dL
ΔAUC of plasma glucose level (sucrase): 4978 min^− mg/dl
SMILES: O=C[C@H](O)[C@@H](O)[C@@H](O)CO [L-arabinose]
Plasma glucose level, 0 min (maltase): 89 ± 7 mg/dL
action to suppress the increase of blood glucose level (maltase): scarcely suppressed
Plasma glucose level, 30 min (maltase): 139 ± 16 mg/dL
Plasma glucose level, 60 min (maltase): 157 ± 22 ab mg/dl
Plasma glucose level, 90 min (maltase): 149 ± 21 mg/dL
Plasma glucose level, 120 min (maltase): 138 ± 22 mg/dL
ΔAUC of plasma glucose level (maltase): 6087 min^− mg/dl
Plasma glucose level, 0 min (Male Wistar rats [2]): 97 ± 9 mg/dL
action to suppress the increase of blood glucose level (Male Wistar rats [2]): scarcely suppressed
Plasma glucose level, 30 min (Male Wistar rats [2]): 135 ± 20 mg/dL
Plasma glucose level, 60 min (Male Wistar rats [2]): 129 ± 22 mg/dL
Plasma glucose level, 90 min (Male Wistar rats [2]): 128 ± 22 mg/dL
Plasma glucose level, 120 min (Male Wistar rats [2]): 119 ± 15 mg/dL
ΔAUC of plasma glucose level (Male Wistar rats [2]): 3370 min^− mg/dl
